Consider two molecules from patent publication EP4810038A1, “METHOD FOR TREATING ALK-POSITIVE OR ROS1-POSITIVE NON-SMALL CELL LUNG CANCER” (Shenzhen TargetRx Co., Ltd., priority 2023, dated 2025).

The conditions of data set [1]: 100 mg of lorlatinib, GM (%CV), cited from earlier work.
Data set [2] has as its system Ba/F3 (SLC34A2-ROS1 G2032R) cell line. Kind of data set: Anti-tumor effect in subcutaneous transplanted Ba/F3 (SLC34A2-ROS1 G2032R) model. Format: in vivo, NOD-SCID mice. The conditions noted are these: 100 mg/kg p.o. once daily; 21st day after administration.
From the text: Housing environment: SPF grade.
Environmental conditions of the housing room of the laboratory animals: All the laboratory animals were housed in individually ventilated cages with constant temperature and constant humidity. […] The animals were continuously provided with cobalt-60 irradiated complete pelleted mouse feed with unlimited free access. The animals drank tap water (used after being autoclaved), which was provided continuously from water bottles, allowing for free access. The cages for raising the mice were polysulfone mice cages, which were autoclaved before use, and measured 325 mm × 210 mm × 180 mm. The bedding was autoclaved corn cobs. Each cage contained 5 animals. The cage cards were marked with the IACUC approval number, experiment number, start time of the experiment, project leader, experimenters, source of the animals, group, and animal number. The laboratory animals were marked with ear tags or ear labels.
The Ba/F3 (SLC34A2-ROS1 G2032R) cells in the exponential growth phase were collected, resuspended in PBS to a suitable concentration, and then subcutaneously inoculated into nude mice for tumor formation.
Assay method: Female NOD/SCID mice were subcutaneously inoculated with 2×10^6 Ba/F3 (SLC34A2-ROS1 G2032R) cells on the right side to establish a subcutaneous tumor transplantation model. […] The mice were administered orally via gavage once daily. The efficacy was evaluated based on the relative tumor growth inhibition rate (TGI), and the safety was evaluated based on the changes in the body weight and mortality of the animals.
All the procedures, including drug administration, tumor measurement, weight measurement, etc., were performed in a biosafety cabinet or on a clean bench.
The relative tumor growth rate (T/C%) was the percentage value of the relative tumor volume between a treatment group and the control group at a certain time point, or the percentage value of the tumor weight between a treatment group and the control group. The calculation formula was: T/C% = TRTV / CRTV × 100% (TRTV: the average RTV of the treatment group; CRTV: the average RTV of the solvent control group; RTV = Vt / V0, wherein V0 is the tumor volume of the animal at the time of grouping, and Vt is the tumor volume of the animal after treatment); or T/C% = TTW / CTW × 100% (TTW: the average tumor weight at the end of the assay in the treatment group; CTW: the average tumor weight at the end of the assay in the solvent control group).
Statistical analysis: To compare the tumor volume on a given day across the different treatment groups, we first used the Bartlett's test to verify the assumption of homogeneity of variance among all the groups. When the p-value of the Bartlett's test was not less than 0.05, one-way ANOVA was used to test whether the means of all the groups were equal. If the p-value of the one-way ANOVA was less than 0.05, we would use the Tukey's HSD test for the pairwise comparisons between all the groups, or use the Dunnett's test for a pairwise comparison between each treatment group and the control group. When the p-value of the Bartlett's test was less than 0.05, the Kruskal-Wallis test was used to test whether the medians of all the groups were equal. […]

`C[C@H]1Oc2cc(cnc2N)-c2c(nn(C)c2C#N)CN(C)C(=O)c2ccc(F)cc21` [lorlatinib]: in data set [1] (Multiple administrations), the AR is 0.718(55)[11]; the AUC0-τ was 5946(46)[11] h*ng/ mL; the “Cmax, SS” value was 644.8(32)[11] ng/mL. Also, in data set [1] (Single administration), the AUC(0-inf) was 9590(11)[7] h*ng/ mL, the Cmax is 907.2(24) [7] ng/mL and the T1/2 is 20.0(22)[7] hour.
For `C[C@@H](Oc1cc(-c2cnn(C3CCNCC3)c2)cnc1N)c1c(Cl)ccc(F)c1Cl` [crizotinib, reference compound], the average tumor volume in data set [2] came out at 1651.66 mm^3.
